These results are taken from publication PMC3623961, “A Comparative Study of Interaction of Tetracycline with Several Proteins Using Time Resolved Anisotropy, Phosphorescence, Docking and FRET” (PLoS ONE, 2013).

Molecules are shown by their SMILES. Where a name gives a salt, the structure may show the parent alone.

In assay [1] the target is T1, Human serum albumin (HSA) (Homo sapiens, UniProt P02768).
T1 construct: gene ALB; mature serum albumin, 585 amino acids, 17 disulfides, single Trp214; purchased from Sigma-Aldrich
T1 sequence (P02768 25-609): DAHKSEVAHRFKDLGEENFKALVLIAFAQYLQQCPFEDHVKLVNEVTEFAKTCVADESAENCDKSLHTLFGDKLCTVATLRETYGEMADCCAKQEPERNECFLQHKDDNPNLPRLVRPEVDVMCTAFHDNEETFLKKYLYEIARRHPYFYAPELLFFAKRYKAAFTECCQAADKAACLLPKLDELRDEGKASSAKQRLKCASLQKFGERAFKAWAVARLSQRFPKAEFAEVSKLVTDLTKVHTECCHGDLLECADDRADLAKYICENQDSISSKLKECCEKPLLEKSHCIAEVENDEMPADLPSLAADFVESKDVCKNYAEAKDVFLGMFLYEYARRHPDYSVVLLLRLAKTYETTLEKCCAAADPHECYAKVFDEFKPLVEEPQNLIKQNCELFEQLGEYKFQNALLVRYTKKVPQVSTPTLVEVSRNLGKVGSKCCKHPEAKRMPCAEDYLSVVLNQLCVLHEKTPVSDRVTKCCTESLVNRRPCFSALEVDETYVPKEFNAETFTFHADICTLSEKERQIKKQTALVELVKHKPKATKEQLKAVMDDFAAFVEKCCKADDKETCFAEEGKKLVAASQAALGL
Nature of the assay: fluorescence enhancement of bound tetracycline, modified Benesi-Hildebrand. Particulars: read-out: Binding Constant (M^-1) (converted). The text has this:
fluorescence enhancement of bound tetracycline, modified Benesi-Hildebrand on Human serum albumin (HSA)

Assay [2] has as its target T2, Bovine serum albumin (BSA) (Bos taurus, UniProt P02769).
T2 construct: gene ALB; mature serum albumin, 17 disulfides, Trp134 and Trp213; purchased from Sigma-Aldrich
The assay is described as above. Particulars: read-out: Binding Constant (M^-1) (converted). From the text:
fluorescence enhancement of bound tetracycline, modified Benesi-Hildebrand on Bovine serum albumin (BSA)

T2 sequence (P02769 25-607): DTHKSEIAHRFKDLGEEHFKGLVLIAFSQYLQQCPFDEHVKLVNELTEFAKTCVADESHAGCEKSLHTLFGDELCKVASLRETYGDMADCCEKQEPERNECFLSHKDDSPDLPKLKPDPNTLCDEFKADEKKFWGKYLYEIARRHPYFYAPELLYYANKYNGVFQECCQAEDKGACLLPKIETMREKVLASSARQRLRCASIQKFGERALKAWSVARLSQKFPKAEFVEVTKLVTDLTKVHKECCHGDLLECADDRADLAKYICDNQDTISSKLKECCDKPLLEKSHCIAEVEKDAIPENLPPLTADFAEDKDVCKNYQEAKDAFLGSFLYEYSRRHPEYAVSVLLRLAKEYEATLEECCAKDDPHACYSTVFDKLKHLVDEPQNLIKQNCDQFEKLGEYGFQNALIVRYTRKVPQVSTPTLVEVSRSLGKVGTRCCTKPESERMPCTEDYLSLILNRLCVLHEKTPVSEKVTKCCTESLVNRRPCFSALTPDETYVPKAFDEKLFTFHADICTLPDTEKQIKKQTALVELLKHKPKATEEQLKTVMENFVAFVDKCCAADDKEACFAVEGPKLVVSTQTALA

Consider `CN(C)[C@@H]1C(O)=C(C(N)=O)C(=O)[C@@]2(O)C(O)=C3C(=O)c4c(O)cccc4[C@@](C)(O)[C@H]3C[C@@H]12` [Tetracycline hydrochloride], for which the Kd in assay [1] was 31.8 µM; in assay [2] it was 21.2 µM.
